Assay results: US6461613B2, “Methods and compositions for the selective regulation of chorionic prostanoids” (priority 1993, dated 2002)

Legend:
human term placenta [1] = assay: Effect of arachidonic acid on prostanoid release from perifused human term placental explants; assay type: cell-based
Description: Radioimmunoassays were performed in a fashion similar to what has been previously described (Siler-Khodr et al., 1986, Biol. Reprod., 35:312) which is specifically incorporated herein for this purpose, with specific exception as noted below. A perifusion model (described in Examples 2 and 3) was employed to determine placental cell response. Media collected from the perifusion samples prepared from placental tissues were assayed. After an initial pilot study of the prostanoid release of each of the perifusion placental tissue media samples collected hourly, samples from hours 3, 4, 5, 6, 8 and 12 of the perifusion were chosen for assay and for data analysis. All the samples from a given perifusion (placenta) were determined in the same assay.
The effect of exogenous arachidonic acid on basal prostanoid release was studied by perifusing placental tissue from the beginning of the fifth hour of the perifusion, with Medium 199 containing arachidonic acid (0.2, 1.0 or 10 μg/ml). Arachidonic acid was dissolved in ethanol such that 0.02 ml ethanol per 100 ml of Medium 199 was needed to obtain these concentrations, and the resulting ethanol concentration was 0.02%. The control medium was also made to be 0.02% ethanol for valid comparison of the arachidonic acid parameter only. Four replicated chambers were perifused with control medium and each of the experimental arachidonic acid media. This experimental design was repeated using placental tissues from three different patients.
Briefly, term placenta were obtained and placed on ice immediately after vaginal delivery from patients having spontaneous labor and delivery without any known obstetrical or medical complications. Tissues were obtained in accordance with a protocol approved by the Institutional Review Board. Within 30 minutes, the placental tissues were dissected of decidua, chorionic plates and large fetal vessels on ice. The placental tissues were cut into small fragments (approximately 25 pieces having a total weight of approximately 1 g), rinsed free of blood by repeated washing with ice cold normal saline until clear in color, and the tissue fragments placed in a 3-ml tissue chamber, placed in a 37° C. water bath. Twenty replicate chambers were prepared and each perifused with Medium 199 containing 0.05% BSA, 100 U penicillin and 100 μg streptomycin per ml at a rate of 1 ml per hour for 12 hours. This medium is hereafter referred to as Medium 199. The influx medium was aerated with 95% air and 5% CO2 throughout the perifusion. Perifusion was performed for two hours prior to initiation of sample collection. In this fashion, all tissues were thoroughly washed and equilibrated. Samples were collected hourly, beginning at the start of the third hour, into 12×75 mm glass tubes containing 0.1 ml indomethacin and 1100 μg/ml dimethyl sulfoxide [DMSO]. It took approximately one hour for the input medium to pass through the perifusion tubing and chamber and to be collected in the sample tube, thus the dead volume of the system was approximately 1 ml. Collection of the effluent of the 20 chambers was done simultaneously, using an ISCO fraction collector Retriever III adapted with a 20-tube rack and manifold.
The prostanoid release for a given chamber was expressed as the increase over the fourth-hour prostanoid release for that chamber. Because there may be differences in the amounts of blood vessels and connective tissue among placental explants, the release expressed per unit weight results in high variance between chambers. […] Thus, the release of each chamber was related to its functional competence at the time of treatment rather than its mass.
The mean release for replicate chambers from a given placenta for each particular prostanoid in the presence of arachidonic acid or each of the various enzyme inhibitors was calculated and then the mean data for each of the three different placentas was averaged at each time point. […]

human term placenta [2] = assay: Effect of enzyme inhibitors on prostanoid release from perifused human term placental explants (RIA); assay type: cell-based; details: quinacrine 10 μM; for effect on PGFM release vs control / effect on TxB2 release vs control: EDTA 1 mM in perifusion medium; for effect on 6-keto-PGF1α release vs control / effect on PGE release vs control: EDTA 1 mM, NDGA 10 μM in perifusion medium
Description: Radioimmunoassays were performed in a fashion similar to what has been previously described (Siler-Khodr et al., 1986, Biol. Reprod., 35:312) which is specifically incorporated herein for this purpose, with specific exception as noted below. A perifusion model (described in Examples 2 and 3) was employed to determine placental cell response. Media collected from the perifusion samples prepared from placental tissues were assayed. […] All the samples from a given perifusion (placenta) were determined in the same assay. At the beginning of the fifth hour of the perifusion, Medium 199 in the experimental chambers was changed to Medium 199 containing quinacrine (10 μM), EDTA (1 mM), NDGA (10 μM) or indomethacin (50 μg/ml). Four replicated chambers were perifused with control medium and each of the experimental media. This experimental design was repeated in three different perifusions using placental tissues from three different patients according to the procedure described in Example 3. […] Term placentas were obtained and placed on ice immediately after vaginal delivery from patients having spontaneous labor and delivery without any known obstetrical or medical complications. Tissues were obtained in accordance with a protocol approved by the Institutional Review Board. Within 30 minutes, the placental tissues were dissected of decidua, chorionic plates and large fetal vessels on ice. The placental tissues were cut into small fragments (approximately 25 pieces having a total weight of approximately 1 g), rinsed free of blood by repeated washing with ice cold normal saline until clear in color, and the tissue fragments placed in a 3-ml tissue chamber, placed in a 37° C. water bath. […] This medium is hereafter referred to as Medium 199. […] Perifusion was performed for two hours prior to initiation of sample collection. In this fashion, all tissues were thoroughly washed and equilibrated. Samples were collected hourly, beginning at the start of the third hour, into 12×75 mm glass tubes containing 0.1 ml indomethacin and 1100 μg/ml dimethyl sulfoxide [DMSO]. It took approximately one hour for the input medium to pass through the perifusion tubing and chamber and to be collected in the sample tube, thus the dead volume of the system was approximately 1 ml. Collection of the effluent of the 20 chambers was done simultaneously, using an ISCO fraction collector Retriever III adapted with a 20-tube rack and manifold. The prostanoid release for a given chamber was expressed as the increase over the fourth-hour prostanoid release for that chamber. Because there may be differences in the amounts of blood vessels and connective tissue among placental explants, the release expressed per unit weight results in high variance between chambers. […] Thus, the release of each chamber was related to its functional competence at the time of treatment rather than its mass. The mean release for replicate chambers from a given placenta for each particular prostanoid in the presence of arachidonic acid or each of the various enzyme inhibitors was calculated and then the mean data for each of the three different placentas was averaged at each time point. Thus, each placenta was weighted equally in the statistical analyses. Two-way analysis of variance of the average response for each prostanoid for each dose of arachidonic acid or each enzyme inhibitor studied, at each time point, was performed. The normalized data were tested for homogeneity using Cohrna's Q test, and no significant deviation was found. Thus, for each prostanoid and each treatment, where there was a significant main effect or interaction, Dunnett's comparison test was applied to determine the point(s) of significant difference as compared to the control. P<0.05 was considered to be statistically significant.

[3] = arachidonic acid 10 μg/ml, within three hours of exposure

Q: CCCCC/C=C\C/C=C\C/C=C\C/C=C\CCCC(=O)O [arachidonic acid] was tested. Which “effect on prostanoid production” value (human term placenta [1]; arachidonic acid 0.2 μg/ml) did it give?
A: no significant effect

Q: What about the “effect on prostanoid production” value (human term placenta [1]; arachidonic acid 1.0 μg/ml) of the same molecule?
A: no significant effect

Q: What about the “effect on PGE release” value (human term placenta [1]; [3]) of the same molecule?
A: significant increase

Q: What about the “effect on PGF release” value (human term placenta [1]; [3]) of the same molecule?
A: significant increase

Q: And the “effect on 6-keto-PGF1α” value (human term placenta [1]; arachidonic acid 0.2-10 μg/ml)?
A: no significant effect

Q: And the “effect on PGFM” value (human term placenta [1]; arachidonic acid 0.2-10 μg/ml)?
A: no significant effect

Q: And the “effect on TxB2” value (human term placenta [1]; arachidonic acid 0.2-10 μg/ml)?
A: no significant effect

Q: O=C(O)CN(CCN(CC(=O)O)CC(=O)O)CC(=O)O [EDTA, ethylene diamino tetraacetic acid] was tested. Which “effect on PGFM release vs control” value (human term placenta [2]) did it give?
A: did not reduce

Q: And the “effect on TxB2 release vs control” value (human term placenta [2])?
A: did not reduce

Q: What about the “effect on 6-keto-PGF1α release vs control” value (human term placenta [2]) of the same molecule?
A: significant inhibition

Q: And the “effect on PGE release vs control” value (human term placenta [2])?
A: did not reduce

Q: Which results are given for CCN(CC)CCCC(C)Nc1c2ccc(Cl)cc2nc2ccc(OC)cc12 (stereo not drawn) [quinacrine]?
A: effect on PGFM release vs control (human term placenta [2]): no significant effect; effect on TxB2 release vs control (human term placenta [2]): no significant effect; effect on 6-keto-PGF1α release vs control (human term placenta [2]): no significant effect; effect on PGE release vs control (human term placenta [2]): no significant effect; effect on PGF release vs control (human term placenta [2]; first hour of exposure): significant inhibition

Q: What does the source list for CC(Cc1ccc(O)c(O)c1)C(C)Cc1ccc(O)c(O)c1 (stereo not drawn) [NDGA, nordihydroguaiaretic acid]?
A: effect on 6-keto-PGF1α release vs control (human term placenta [2]): significant inhibition; effect on PGE release vs control (human term placenta [2]): inhibited
